Common to all, as to experiment: Bliss excess, mean over the matrix (fraction); higher = more synergy
Assay [1] concerns PA-TU-8988T (Pancreatic Carcinoma). Summed up: (§1)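 Cell lines in DMEM/F12 or RPMI with 10% FBS were plated in 1536-well plates, held 24 hours at 37°C, 5% CO2, then given two-drug dose matrices for 72 hours (DMSO typically 0.2%). Viability was read by CellTiter-Glo 2.0 luminescence and scaled as inhibition from 0 (vehicle wells) to 1 (blank wells). Combination Emax is the second-highest inhibition in the matrix; Bliss excess is observed combination effect minus expected EA + EB − EA·EB, EA and EB being single-agent effects.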

In assay [2] the test system is BHT-101 (Thyroid Gland Carcinoma). Summed up:
as §1

For the next assay, the system named is KALS-1 (Glioblastoma). Summed up:
as §1

Assay [3] has as its system MS-1 (Small Cell Lung Carcinoma). Summed up: as §1
Assay [4] deals with C-33-A (Cervical Carcinoma). Summed up: as §1
Assay [5] has as its system NCI-H3118 (Head and Neck Carcinoma). The essentials: as §1
In assay [6] the test system is MM1S (Plasma Cell Myeloma). The essentials:
as §1

The test system of a further assay is UACC-257 (Melanoma). Summed up: as §1
Assay [7] deals with T84 (Colorectal Carcinoma). Summed up:
as §1

In assay [8] the test system is NCI-H1876 (Small Cell Lung Carcinoma). The essentials:
as §1

Assay [9] has as its system MDA-MB-415 (Breast Carcinoma). Summed up:
as §1

Another assay concerns ES6 (Ewing's Sarcoma). The essentials:
as §1

The subject of assay [10] is CPC-N (Small Cell Lung Carcinoma). The essentials:
as §1

For assay [11], the system named is NCI-H1963 (Small Cell Lung Carcinoma). The essentials:
as §1

Assay [12] has as its system LS-1034 (Colorectal Carcinoma). Summed up:
as §1

Assay [13] relates to SNU-C2B (Colorectal Carcinoma). Summed up: as §1
Assay [14] deals with TUR (Acute Myeloid Leukemia). Summed up: as §1
Assay [15] has as its system OVCAR-3 (Ovarian Carcinoma). Summed up:
as §1

Assay [16] deals with MOLP-8 (Plasma Cell Myeloma). The essentials:
as §1

In assay [17] the test system is Raji (Burkitt's Lymphoma). Summed up:
as §1

Regarding `Cn1cnc2c(F)c(Nc3ccc(Br)cc3Cl)c(C(=O)NOCCO)cc21` [Selumetinib] + CCN(CCO)CCCOc1ccc2c(Nc3cc(CC(=O)Nc4cccc(F)c4)[nH]n3)ncnc2c1 [AZD2811] (first compound max 10 µM, 7x7, partner max 1 µM), the Bliss excess is -0.0527 in [1]; -0.0267 in assay [2]; -0.0093 in the assay with KALS-1 (Glioblastoma); -0.0261 in assay [3]; 0.0162 in assay [4]; 0.0259 in assay [5]. Besides, the Bliss excess in assay [6] was 0.0812; in the assay with UACC-257 (Melanoma), 0.0212; in assay [7], -0.0479; in assay [8], 0.0986; in assay [9] it was -0.0064; with ES6 (Ewing's Sarcoma), -0.0508. The Bliss excess in assay [10] is -0.0474; in assay [11], 0.0053; in [12], -0.0556; in assay [13] it was 0.0193; in [14], 0.0277; in [15] it was -0.0239. Moreover, the Bliss excess is -0.017 in assay [16] and -0.0166 in assay [17].

As for `COc1cc2ncnc(Nc3ccc(F)c(Cl)c3)c2cc1OCCCN1CCOCC1` [Gefitinib] + CC(C)n1c(=O)n(C)c2cnc3cc(F)c(-c4ccc(OCCCN5CCCCC5)nc4)cc3c21 [AZD1390] (first compound max 10 µM, 7x7, partner max 0.3 µM), the Bliss excess is -0.0342 in assay [1]; -0.035 in [2]; -0.0471 with KALS-1 (Glioblastoma); -0.0252 in assay [3]; -0.0656 in [4]; -0.0011 in assay [5]. For the same compound, the Bliss excess is -0.0356 in assay [6]; -0.055 in the assay on UACC-257 (Melanoma); -0.035 in assay [7]; -0.074 in assay [8]; -0.103 in assay [9]; -0.0574 with ES6 (Ewing's Sarcoma). Further, the Bliss excess in assay [10] is -0.0369; in assay [11] it was -0.0526; in [12], -0.0368; in assay [13], -0.06; in assay [14] it was -0.0185; in [15] it was -0.056. In addition, the Bliss excess is -0.0584 in assay [16] and -0.0343 in assay [17].

As to `NC1(C(=O)N[C@@H](CCO)c2ccc(Cl)cc2)CCN(c2ncnc3[nH]ccc23)CC1` [Capivasertib] + CC(=O)c1c(C)c2cnc(Nc3ccc(N4CCNCC4)cn3)nc2n(C2CCCC2)c1=O [Palbociclib] (first compound max 10 µM, 7x7, partner max 10 µM), the Bliss excess is -0.0168 in [1]; -0.0022 in assay [2]; -0.0379 in the assay on KALS-1 (Glioblastoma); -0.0055 in assay [3]; -0.042 in [4]; 0.0463 in assay [5]. The Bliss excess in assay [6] is -0.0128; with UACC-257 (Melanoma) it was -0.0046; in assay [7], -0.0175; in [8], -0.0263; in assay [9] it was -0.0234; in the assay with ES6 (Ewing's Sarcoma) it was -0.0055. Also, the Bliss excess was -0.0448 in [10]; -0.0584 in assay [11]; -0.0157 in assay [12]; -0.16 in assay [13]; 0.0128 in assay [14]; -0.0396 in [15]. Further, the Bliss excess in assay [16] is 0.0115; in [17], 0.0521.

Take `COc1nnc2ccc(N3CCC(c4ccc(OCCN5CCN(C)C(=O)[C@H]5C)cc4)CC3)nn12` [AZD5153] + CCN(CCO)CCCOc1ccc2c(Nc3cc(CC(=O)Nc4cccc(F)c4)[nH]n3)ncnc2c1 [AZD2811] (first compound max 1 µM, 7x7, partner max 1 µM): the Bliss excess in [1] was 0.0086; in assay [2], -0.0257; in the assay on KALS-1 (Glioblastoma), -0.0911; in [3] it was -0.0171; in assay [4], 0.0198; in assay [5], -0.0437. Besides, the Bliss excess in assay [6] is 0.106; with UACC-257 (Melanoma), 0.0076; in assay [7] it was -0.0536; in [8] it was 0.0183; in [9] it was -0.0346; in the assay on ES6 (Ewing's Sarcoma), -0.0476. In addition, the Bliss excess in [10] is -0.0601; in assay [11], -0.0585; in assay [12] it was -0.046; in [13], -0.0223; in assay [14], 0.131; in assay [15] it was -0.0394. Besides, the Bliss excess in [16] worked out at 0.0011; in assay [17], 0.0314.

For `COc1cc2c(cc1OCCCCCOc1cc3c(cc1OC)C(=O)N1C=C(C)C[C@H]1C=N3)N=C[C@@H]1CC(C)=CN1C2=O` [SG3199] + O=C(c1cc(Cc2n[nH]c(=O)c3ccccc23)ccc1F)N1CCN(C(=O)C2CC2)CC1 [Olaparib] (first compound max 0.001 µM, 7x7, partner max 10 µM), the Bliss excess in assay [1] is 0.0053; in assay [2] it was -0.009; in the assay on KALS-1 (Glioblastoma), -0.0155; in assay [3], 0.0418; in assay [4] it was -0.0476; in [5] it was -0.0471. Besides, the Bliss excess was 0.0663 in assay [6]; -0.0419 in the assay with UACC-257 (Melanoma); -0.0279 in assay [7]; -0.0267 in assay [8]; -0.0333 in assay [9]; -0.0231 with ES6 (Ewing's Sarcoma). Moreover, the Bliss excess was -0.0062 in assay [10]; 0.025 in [11]; -0.0462 in assay [12]; -0.0374 in assay [13]; 0.0081 in assay [14]; -0.0205 in [15]. Moreover, the Bliss excess in assay [16] was 0.002; in assay [17], 0.0002.

As for `CCN(CCO)CCCOc1ccc2c(Nc3cc(CC(=O)Nc4cccc(F)c4)[nH]n3)ncnc2c1` [AZD2811] + C[C@@H]1COCCN1C2=NC(=NC(=C2)C3(CC3)[S@](=N)(=O)C)C4=C5C=CNC5=NC=C4 [AZD6738] (first compound max 1 µM, 7x7, partner max 10 µM), the Bliss excess in [1] is 0.0002; in [2] it was -0.0298; in the assay with KALS-1 (Glioblastoma) it was -0.038; in assay [3], -0.0585; in assay [4], -0.0531; in assay [5], -0.0682. Also, the Bliss excess is 0.0151 in assay [6]; -0.0649 in the assay on UACC-257 (Melanoma); -0.0103 in assay [7]; -0.0316 in assay [8]; -0.0438 in [9]; -0.0479 in the assay on ES6 (Ewing's Sarcoma). Also, the Bliss excess in assay [10] is -0.0794; in assay [11] it was -0.0777; in assay [12], -0.0473; in assay [13], -0.0581; in assay [14], 0.019; in assay [15] it was -0.0269. Besides, the Bliss excess was -0.028 in [16] and -0.0562 in assay [17].

`Cc1cc2ncnn2cc1Nc1ncc2c(n1)n(C1CCOCC1)c(=O)n2C` [AZD7648] + CCN(CCO)CCCOc1ccc2c(Nc3cc(CC(=O)Nc4cccc(F)c4)[nH]n3)ncnc2c1 [AZD2811] (first compound max 10 µM, 7x7, partner max 1 µM): the Bliss excess in assay [1] was 0.0056; in assay [2], -0.0091; in the assay on KALS-1 (Glioblastoma), 0.0068; in [3] it was 0.0104; in assay [4], 0.045; in assay [5], 0.0241. Besides, the Bliss excess was 0.0333 in assay [6]; 0.0315 in the assay on UACC-257 (Melanoma); 0.0161 in assay [7]; -0.074 in [8]; -0.002 in assay [9]; -0.0042 with ES6 (Ewing's Sarcoma). The Bliss excess in assay [10] was -0.0306; in assay [11], -0.0146; in assay [12], 0.0104; in [13] it was 0.0265; in assay [14], 0.0523; in [15], 0.0046. Further, the Bliss excess in assay [16] was 0.0616; in [17] it was 0.0312.

The values are drawn from the supplement of paper PMC11061612.
